# Measured values from ChEMBL document CHEMBL1140747, “Discovery of potent and selective dipeptidyl peptidase IV inhibitors derived from beta-aminoamides bearing subsituted triazolopiperazines” (J Med Chem, 2008).
# Legend:
# [1] = target: T1, Xaa-Pro dipeptidase (Homo sapiens, UniProt P12955); experiment: Inhibition of prolidase
# T1 sequence (P12955 whole entry): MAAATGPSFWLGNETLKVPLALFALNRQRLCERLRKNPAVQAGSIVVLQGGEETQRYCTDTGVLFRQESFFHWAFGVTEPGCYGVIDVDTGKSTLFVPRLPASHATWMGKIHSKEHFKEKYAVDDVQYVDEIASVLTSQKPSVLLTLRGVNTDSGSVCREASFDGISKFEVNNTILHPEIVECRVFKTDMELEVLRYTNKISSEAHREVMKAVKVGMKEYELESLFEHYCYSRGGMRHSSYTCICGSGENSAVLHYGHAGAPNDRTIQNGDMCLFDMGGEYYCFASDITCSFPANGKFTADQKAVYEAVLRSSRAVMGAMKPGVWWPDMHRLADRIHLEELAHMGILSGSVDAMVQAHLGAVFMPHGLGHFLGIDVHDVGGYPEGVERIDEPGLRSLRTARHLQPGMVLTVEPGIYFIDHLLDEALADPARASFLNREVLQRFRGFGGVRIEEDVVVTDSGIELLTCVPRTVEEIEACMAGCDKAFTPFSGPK
# [2] = target: Xaa-Pro aminopeptidase 1 (Homo sapiens, UniProt Q9NQW7); experiment: Inhibition of amino peptidase P
# [3] = target: Dipeptidyl peptidase 8 (Homo sapiens, UniProt Q6V1X1); experiment: Inhibition of DPP8
# [4] = target: Dipeptidyl peptidase 4 (Homo sapiens, UniProt P27487)
# [5] = target: T2, Prolyl endopeptidase FAP (Homo sapiens, UniProt Q12884); experiment: Inhibition of FAP
# T2 sequence (Q12884 whole entry): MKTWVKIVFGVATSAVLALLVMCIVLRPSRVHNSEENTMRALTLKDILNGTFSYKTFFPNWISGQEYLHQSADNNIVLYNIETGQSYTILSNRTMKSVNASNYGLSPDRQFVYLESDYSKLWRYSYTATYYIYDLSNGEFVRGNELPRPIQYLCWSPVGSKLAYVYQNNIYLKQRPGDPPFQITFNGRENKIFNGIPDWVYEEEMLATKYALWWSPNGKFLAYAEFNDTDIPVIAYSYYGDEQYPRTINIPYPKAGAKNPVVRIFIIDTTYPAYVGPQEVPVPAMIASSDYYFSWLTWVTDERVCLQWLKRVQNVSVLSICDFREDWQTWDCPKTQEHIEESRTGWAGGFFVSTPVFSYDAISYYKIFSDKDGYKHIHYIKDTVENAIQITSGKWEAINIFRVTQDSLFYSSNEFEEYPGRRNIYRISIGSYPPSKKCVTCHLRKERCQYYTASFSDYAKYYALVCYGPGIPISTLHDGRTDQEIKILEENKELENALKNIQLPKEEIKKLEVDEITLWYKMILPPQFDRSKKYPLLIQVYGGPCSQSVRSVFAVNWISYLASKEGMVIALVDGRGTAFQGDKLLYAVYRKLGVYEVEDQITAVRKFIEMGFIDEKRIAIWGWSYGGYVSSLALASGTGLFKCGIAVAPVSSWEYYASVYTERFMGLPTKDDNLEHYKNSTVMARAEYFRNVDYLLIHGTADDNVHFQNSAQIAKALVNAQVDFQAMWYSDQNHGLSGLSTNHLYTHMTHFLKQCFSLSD
# [6] = target: Dipeptidyl peptidase 9 (Homo sapiens, UniProt Q86TI2); experiment: Inhibition of DPP9
# [7] = target: Dipeptidyl peptidase 2 (Homo sapiens, UniProt Q9UHL4); experiment: Inhibition of QPP
# Dipeptidyl peptidase 8, sequence (Q6V1X1 whole entry): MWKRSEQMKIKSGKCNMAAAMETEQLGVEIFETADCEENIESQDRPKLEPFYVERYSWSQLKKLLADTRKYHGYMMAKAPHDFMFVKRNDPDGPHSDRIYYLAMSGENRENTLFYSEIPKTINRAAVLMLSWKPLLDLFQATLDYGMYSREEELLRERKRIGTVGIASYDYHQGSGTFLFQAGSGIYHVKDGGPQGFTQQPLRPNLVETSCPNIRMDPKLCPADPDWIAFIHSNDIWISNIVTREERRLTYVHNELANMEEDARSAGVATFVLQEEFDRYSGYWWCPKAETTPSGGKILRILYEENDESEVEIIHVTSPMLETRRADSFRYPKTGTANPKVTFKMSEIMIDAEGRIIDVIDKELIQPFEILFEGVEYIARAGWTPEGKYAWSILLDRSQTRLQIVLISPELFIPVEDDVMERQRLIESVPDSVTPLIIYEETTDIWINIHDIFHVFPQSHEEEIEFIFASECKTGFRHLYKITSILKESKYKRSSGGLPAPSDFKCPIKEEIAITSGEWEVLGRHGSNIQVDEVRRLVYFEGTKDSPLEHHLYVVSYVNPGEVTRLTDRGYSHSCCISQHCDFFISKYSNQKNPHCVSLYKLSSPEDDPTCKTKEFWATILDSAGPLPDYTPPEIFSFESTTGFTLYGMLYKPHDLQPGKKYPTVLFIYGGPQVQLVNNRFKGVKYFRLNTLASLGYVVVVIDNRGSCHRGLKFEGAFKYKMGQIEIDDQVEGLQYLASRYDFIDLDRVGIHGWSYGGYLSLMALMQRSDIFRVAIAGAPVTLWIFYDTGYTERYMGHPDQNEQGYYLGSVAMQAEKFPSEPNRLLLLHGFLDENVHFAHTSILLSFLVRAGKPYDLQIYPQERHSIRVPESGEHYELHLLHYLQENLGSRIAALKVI
# Dipeptidyl peptidase 4, sequence (P27487 whole entry): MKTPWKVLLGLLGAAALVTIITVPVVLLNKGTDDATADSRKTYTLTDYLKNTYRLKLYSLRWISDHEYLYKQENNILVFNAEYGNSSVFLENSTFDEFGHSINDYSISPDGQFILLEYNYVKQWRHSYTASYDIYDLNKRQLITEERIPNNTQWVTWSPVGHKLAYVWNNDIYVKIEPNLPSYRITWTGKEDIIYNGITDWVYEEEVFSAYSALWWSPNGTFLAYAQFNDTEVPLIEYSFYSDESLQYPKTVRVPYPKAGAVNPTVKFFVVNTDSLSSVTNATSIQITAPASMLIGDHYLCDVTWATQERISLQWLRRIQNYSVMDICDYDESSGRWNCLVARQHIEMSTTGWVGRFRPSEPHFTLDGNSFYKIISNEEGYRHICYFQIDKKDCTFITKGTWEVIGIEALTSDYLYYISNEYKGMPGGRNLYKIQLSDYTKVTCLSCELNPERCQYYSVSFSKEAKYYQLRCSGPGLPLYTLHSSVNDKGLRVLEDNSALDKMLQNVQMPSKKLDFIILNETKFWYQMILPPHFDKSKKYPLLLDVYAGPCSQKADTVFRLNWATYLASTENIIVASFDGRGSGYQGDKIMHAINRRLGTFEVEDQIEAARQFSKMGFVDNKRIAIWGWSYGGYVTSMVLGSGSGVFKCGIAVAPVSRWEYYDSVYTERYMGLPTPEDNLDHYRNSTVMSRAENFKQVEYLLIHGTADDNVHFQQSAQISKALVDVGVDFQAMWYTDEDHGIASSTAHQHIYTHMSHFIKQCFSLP
# Xaa-Pro aminopeptidase 1, sequence (Q9NQW7 whole entry): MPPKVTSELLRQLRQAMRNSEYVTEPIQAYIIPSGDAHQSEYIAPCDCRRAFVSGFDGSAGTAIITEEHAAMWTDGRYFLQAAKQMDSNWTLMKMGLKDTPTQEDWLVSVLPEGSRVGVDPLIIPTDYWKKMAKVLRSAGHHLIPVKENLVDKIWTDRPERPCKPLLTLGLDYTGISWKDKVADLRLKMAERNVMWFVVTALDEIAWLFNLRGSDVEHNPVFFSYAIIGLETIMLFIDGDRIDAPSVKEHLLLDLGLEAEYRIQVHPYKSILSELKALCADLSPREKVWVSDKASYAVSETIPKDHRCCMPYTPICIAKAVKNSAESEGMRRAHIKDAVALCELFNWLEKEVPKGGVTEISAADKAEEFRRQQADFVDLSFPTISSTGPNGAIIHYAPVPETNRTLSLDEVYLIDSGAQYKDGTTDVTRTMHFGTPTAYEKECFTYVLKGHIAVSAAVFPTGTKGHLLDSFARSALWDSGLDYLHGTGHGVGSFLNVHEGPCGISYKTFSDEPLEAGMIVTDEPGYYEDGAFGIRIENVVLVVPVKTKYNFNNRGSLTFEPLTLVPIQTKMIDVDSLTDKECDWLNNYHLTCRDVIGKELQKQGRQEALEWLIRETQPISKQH
# Dipeptidyl peptidase 9, sequence (Q86TI2 whole entry): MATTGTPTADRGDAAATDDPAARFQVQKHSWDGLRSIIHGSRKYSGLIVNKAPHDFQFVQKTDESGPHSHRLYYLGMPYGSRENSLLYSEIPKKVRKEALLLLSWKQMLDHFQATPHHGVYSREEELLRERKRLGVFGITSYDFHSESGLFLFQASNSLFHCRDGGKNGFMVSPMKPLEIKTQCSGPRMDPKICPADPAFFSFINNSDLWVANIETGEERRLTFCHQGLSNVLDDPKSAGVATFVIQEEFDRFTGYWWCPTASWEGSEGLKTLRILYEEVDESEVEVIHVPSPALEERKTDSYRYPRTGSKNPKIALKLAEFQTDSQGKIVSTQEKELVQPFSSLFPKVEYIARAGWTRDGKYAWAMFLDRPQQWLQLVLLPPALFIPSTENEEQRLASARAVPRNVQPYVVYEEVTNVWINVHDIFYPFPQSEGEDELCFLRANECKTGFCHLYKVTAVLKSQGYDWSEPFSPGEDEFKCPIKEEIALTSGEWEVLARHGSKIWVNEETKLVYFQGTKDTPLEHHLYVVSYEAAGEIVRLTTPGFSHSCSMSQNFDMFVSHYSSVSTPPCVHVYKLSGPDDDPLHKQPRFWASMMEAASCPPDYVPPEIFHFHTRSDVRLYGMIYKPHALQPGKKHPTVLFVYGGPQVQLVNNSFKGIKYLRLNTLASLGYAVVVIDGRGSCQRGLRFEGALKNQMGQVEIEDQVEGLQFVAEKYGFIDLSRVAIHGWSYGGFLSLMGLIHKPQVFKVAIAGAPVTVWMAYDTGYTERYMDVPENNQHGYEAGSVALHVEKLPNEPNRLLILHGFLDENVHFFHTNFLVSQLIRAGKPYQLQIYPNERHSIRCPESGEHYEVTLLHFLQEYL
IC50 [1],IC50 [2],IC50 [3],IC50 [4],IC50 [5],IC50 [6],IC50 [7],SMILES
> 10 µM,> 10 µM,–,–,–,–,–,N[C@@H](CC(=O)N1CCNC[C@H]1Cc1ccccc1)Cc1ccccc1F
> 10 µM,> 10 µM,–,–,–,–,–,N[C@@H](CC(=O)N1CCNCC1)Cc1ccccc1F
> 10 µM,> 10 µM,23 µM,0.023 µM,> 10 µM,23 µM,> 100 µM,C[C@H]1CN(C(=O)C[C@H](N)Cc2cc(F)c(F)cc2F)Cc2ccc(C(F)(F)F)n21
> 10 µM,> 10 µM,6 µM,0.175 µM,> 10 µM,20 µM,23 µM,CC1(C)c2nnc(C(F)(F)F)n2CCN1C(=O)C[C@H](N)Cc1cc(F)c(F)cc1F
> 10 µM,> 10 µM,66 µM,0.092 µM,> 10 µM,54 µM,77 µM,CC1(C)CN(C(=O)C[C@H](N)Cc2cc(F)c(F)cc2F)Cc2nnc(C(F)(F)F)n21
> 10 µM,> 10 µM,75 µM,0.042 µM,> 10 µM,> 100 µM,> 100 µM,C[C@@H]1Cn2c(nnc2C(F)(F)F)CN1C(=O)C[C@H](N)Cc1cc(F)c(F)cc1F
> 10 µM,> 10 µM,> 100 µM,0.088 µM,> 10 µM,> 100 µM,> 100 µM,C[C@H]1c2nnc(C(F)(F)F)n2CCN1C(=O)C[C@H](N)Cc1cc(F)c(F)cc1F
> 10 µM,> 10 µM,> 100 µM,0.091 µM,> 10 µM,53 µM,74 µM,C[C@H]1Cn2c(nnc2C(F)(F)F)CN1C(=O)C[C@H](N)Cc1cc(F)c(F)cc1F
> 10 µM,> 10 µM,> 100 µM,0.116 µM,> 10 µM,> 100 µM,39 µM,N[C@@H](CC(=O)N1CCn2c(nnc2C(F)(F)F)[C@@H]1Cc1ccc(F)cc1)Cc1cc(F)c(F)cc1F
> 10 µM,> 10 µM,> 100 µM,0.14 µM,> 10 µM,> 100 µM,87 µM,"N[C@@H](CC(=O)N1CCn2c(nnc2C(F)(F)F)C1Cc1ccccc1)Cc1cc(F)c(F)cc1F (single isomer, unassigned)"
> 10 µM,> 10 µM,> 100 µM,0.113 µM,> 10 µM,> 100 µM,> 100 µM,CCC1c2nnc(C(F)(F)F)n2CCN1C(=O)C[C@H](N)Cc1cc(F)c(F)cc1F (stereo in doubt; 38a)
> 10 µM,> 10 µM,8 µM,0.005 µM,> 10 µM,> 100 µM,47 µM,CCC1c2nnc(C(F)(F)F)n2CCN1C(=O)C[C@H](N)Cc1cc(F)c(F)cc1F (stereo in doubt; 38b)
> 10 µM,> 10 µM,> 100 µM,0.123 µM,> 10 µM,> 100 µM,30 µM,N[C@@H](CC(=O)N1CCn2c(nnc2C(F)(F)F)C1CC(F)(F)F)Cc1cc(F)c(F)cc1F (stereo in doubt; 39a)
> 10 µM,> 10 µM,1.6 µM,0.0057 µM,> 10 µM,26 µM,60 µM,N[C@@H](CC(=O)N1CCn2c(nnc2C(F)(F)F)C1CC(F)(F)F)Cc1cc(F)c(F)cc1F (stereo in doubt; 39b)
> 10 µM,> 10 µM,3 µM,0.0015 µM,> 10 µM,41 µM,33 µM,C=CCC1c2nnc(C(F)(F)F)n2CCN1C(=O)C[C@H](N)Cc1cc(F)c(F)cc1F (stereo in doubt; 40a)
> 10 µM,> 10 µM,72 µM,0.032 µM,> 10 µM,> 100 µM,62 µM,C=CCC1c2nnc(C(F)(F)F)n2CCN1C(=O)C[C@H](N)Cc1cc(F)c(F)cc1F (stereo in doubt; 40b)
> 10 µM,> 10 µM,> 100 µM,0.377 µM,> 10 µM,> 100 µM,> 100 µM,CN(C)C(=O)CC1c2nnc(C(F)(F)F)n2CCN1C(=O)C[C@H](N)Cc1cc(F)c(F)cc1F (stereo in doubt; 41a)
> 10 µM,> 10 µM,0.622 µM,0.00066 µM,> 10 µM,24 µM,52 µM,N[C@@H](CC(=O)N1CCn2c(nnc2C(F)(F)F)C1Cc1ccccc1)Cc1cc(F)c(F)cc1F (stereo in doubt; 42b)
> 10 µM,> 10 µM,> 100 µM,0.32 µM,> 10 µM,> 100 µM,> 100 µM,COc1ccc(CC2c3nnc(C(F)(F)F)n3CCN2C(=O)C[C@H](N)Cc2cc(F)c(F)cc2F)cc1 (stereo in doubt; 43a)
> 10 µM,> 10 µM,0.367 µM,0.00043 µM,> 10 µM,18 µM,57 µM,COc1ccc(CC2c3nnc(C(F)(F)F)n3CCN2C(=O)C[C@H](N)Cc2cc(F)c(F)cc2F)cc1 (stereo in doubt; 43b)
> 10 µM,> 10 µM,> 100 µM,0.438 µM,> 10 µM,> 100 µM,83 µM,N[C@@H](CC(=O)N1CCn2c(nnc2C(F)(F)F)C1Cc1ccccc1C(F)(F)F)Cc1cc(F)c(F)cc1F (stereo in doubt; 44a)
> 10 µM,> 10 µM,8 µM,0.00031 µM,> 10 µM,> 100 µM,41 µM,N[C@@H](CC(=O)N1CCn2c(nnc2C(F)(F)F)C1Cc1ccccc1C(F)(F)F)Cc1cc(F)c(F)cc1F (stereo in doubt; 44b)
> 10 µM,> 10 µM,> 100 µM,0.131 µM,> 10 µM,> 100 µM,76 µM,N[C@@H](CC(=O)N1CCn2c(nnc2C(F)(F)F)C1Cc1ccccc1F)Cc1cc(F)c(F)cc1F (stereo in doubt; 45a)
> 10 µM,> 10 µM,> 100 µM,0.43 µM,> 10 µM,> 100 µM,48 µM,N[C@@H](CC(=O)N1CCn2c(nnc2C(F)(F)F)C1C(O)c1ccc(F)cc1)Cc1cc(F)c(F)cc1F (stereo in doubt; 47a)
> 10 µM,> 10 µM,40 µM,0.09 µM,> 10 µM,> 100 µM,> 100 µM,N[C@@H](CC(=O)N1CCn2c(nnc2C(F)(F)F)C1C(O)c1ccc(F)cc1)Cc1cc(F)c(F)cc1F (stereo in doubt; 47c)
> 10 µM,> 10 µM,0.628 µM,0.0005 µM,> 10 µM,> 100 µM,41 µM,N[C@@H](CC(=O)N1CCn2c(nnc2C(F)(F)F)C1C(O)c1ccc(F)cc1)Cc1cc(F)c(F)cc1F (stereo in doubt; 47d)

SMILES,IC50 [1],IC50 [2],IC50 [3],IC50 [4],IC50 [5],IC50 [6],IC50 [7]
C[C@H]1c2nnc(C(F)(F)F)n2[C@@H](C)CN1C(=O)C[C@H](N)Cc1cc(F)c(F)cc1F,> 10 µM,> 10 µM,> 100 µM,0.209 µM,> 10 µM,> 100 µM,> 100 µM
CC1c2nnc(C(F)(F)F)n2C(C)CN1C(=O)C[C@H](N)Cc1cc(F)c(F)cc1F (stereo in doubt; 16a),> 10 µM,> 10 µM,> 100 µM,0.1 µM,> 10 µM,> 100 µM,> 100 µM
CC1c2nnc(C(F)(F)F)n2C(C)CN1C(=O)C[C@H](N)Cc1cc(F)c(F)cc1F (stereo in doubt; 16d),> 10 µM,> 10 µM,44 µM,0.011 µM,> 10 µM,62 µM,> 100 µM
